Measurements reported in patent publication US7705016B2, “Regulation of food intake by modulation of long-chain fatty acyl-CoA levels in the hypothalamus” (Albert Einstein College of Medicine of Yeshiva University, priority 2003, dated 2010).

Assays:
Glc-6-Pase mRNA = assay: Hepatic Glc-6-Pase mRNA after ICV OA (northern blot); format: in vivo, rat
Procedure: Northern Blot Analysis. Total RNA was isolated from hypothalami and liver with Trizol (Invitrogen Corp., California, USA). NPY, Glc-6-Pase or PEPCK expression was measured by northern blot analysis. Hypothalamic RNA was analyzed using probes for prepro-NPY and β-actin. To assess the effect of ICV OA on the expression of hepatic enzymes, total RNA was isolated from freeze-clamped liver tissues from rats subjected to insulin clamp studies. Glc-6-Pase and PEPCK cDNA were obtained as previously described (Combs et al., 2001; Massillon et al., 1996; 1998). Probes were labeled with [α-^32P] dCTP using a random primer kit (Stratagene). Quantification was performed by scanning densitometry, normalizing for β-actin signal and 18S ribosomal RNA to correct for loading variabilities. Effect of ICV OA on the hepatic expression of Glc-6-Pase and PEPCK. The potent effects of the central administration of OA on hepatic glucose fluxes prompted us to examine whether changes in the liver mRNA levels of key metabolic enzymes can partly account for these effects. Thus, we next measured the liver abundance of Glc-6-Pase and PEPCK mRNA as a function of 18S ribosomal RNA (FIG. 9d) or β-actin mRNA (not shown) in tissue samples obtained after ICV infusion of either OA or vehicle in caloric restricted and over-fed rats. […]

rats = rats fed standard chow, prolonged (16 h) fasting; cited from earlier work
CPT1L = biological target: T1, CPT1L (Rattus norvegicus, UniProt P32198); assay: LC-CoA levels in hypothalamic nuclei by HPLC after ICV CPT1 inhibitor; format: in vivo; conditions: ICV administration
T1 construct: from tissue; host or cells: hypothalamus (arcuate nucleus) of male Sprague-Dawley rats, in vivo or ex vivo
T1 sequence (P32198 1-773): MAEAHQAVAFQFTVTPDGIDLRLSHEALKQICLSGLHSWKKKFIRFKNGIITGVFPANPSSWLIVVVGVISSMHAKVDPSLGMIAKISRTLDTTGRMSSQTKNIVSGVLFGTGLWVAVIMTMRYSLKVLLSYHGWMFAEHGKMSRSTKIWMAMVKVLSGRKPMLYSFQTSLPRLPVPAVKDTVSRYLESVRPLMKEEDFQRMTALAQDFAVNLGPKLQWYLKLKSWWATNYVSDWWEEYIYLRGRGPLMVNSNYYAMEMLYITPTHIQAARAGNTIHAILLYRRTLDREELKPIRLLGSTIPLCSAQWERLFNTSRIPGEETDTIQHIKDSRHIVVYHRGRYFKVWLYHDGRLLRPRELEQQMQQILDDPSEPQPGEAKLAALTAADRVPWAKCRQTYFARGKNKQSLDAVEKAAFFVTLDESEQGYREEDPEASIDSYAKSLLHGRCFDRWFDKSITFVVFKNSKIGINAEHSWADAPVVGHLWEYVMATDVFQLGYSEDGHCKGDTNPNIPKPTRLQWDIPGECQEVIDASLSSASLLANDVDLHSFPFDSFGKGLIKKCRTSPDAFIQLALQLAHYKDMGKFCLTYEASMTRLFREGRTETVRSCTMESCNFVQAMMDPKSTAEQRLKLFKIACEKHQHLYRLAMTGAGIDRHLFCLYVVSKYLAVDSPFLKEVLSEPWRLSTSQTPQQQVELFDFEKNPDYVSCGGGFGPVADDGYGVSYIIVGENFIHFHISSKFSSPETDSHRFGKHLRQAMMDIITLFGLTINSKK
Procedure: Surgical implantation of ICV cannulae was performed on day 1 (˜3 weeks prior to the in vivo study). Full recovery of body weight and food intake was achieved by day 7. Rats randomized for ribozyme treatment received an ICV injection of CPT1L-Ribo, CPT inhibitors or controls on day 17. The experimental group treated with TDGA received ICV injection of the inhibitor on day 21, 6 hr prior to the harvesting of brains. Panels B. and C. show quantitation of CPT1L (B) and CPT1M (C) mRNA by real-time PCR. RNA was purified from individual hypothalamic nuclei (PVN, LHA, and arcuate), which were obtained by micro punch technique 3 days after ICV injection of pTarget control (▪; N=4) or CPT1LRibo (□; N=5). Copy number of CPT1 mRNA is normalized to β-Actin copy number ×10^6. Panels D. and E. show CPT1 activity in individual arcuate nuclei (D) or whole hypothalamus (E). Brains were harvested 6 hr or 3 days […] the ICV injection of TDGA or CPT1L-Ribo respectively, and arcuate nuclei were punched out. CPT1 activity was measured in the particulate fraction of protein extracts from animals treated with ICV control injections (▪; N=6, receiving aCSF+2% DMSO or Control Ribo), TDGA ( ?; N=6), or CPTL-Ribo (□; N=5). Panels F and E establish that ICV administration of CPT1 inhibitors increases levels of LC-CoAs in arcuate. Levels of stearoyl-CoA (F) and oleyl-CoA (E) respectively were measured by HPLC in arcuate of rats injected ICV with control compound (▪; ST1340) or ST1326 (□).
ICV catheters were implanted in male Sprague-Dawley rats by stereotaxic surgery (Obici et al., 2002a; Obici et al., 2001; Liu et al., 1998). The biochemical or molecular analyses, the metabolic or the feeding experiments were performed ˜3 weeks later following complete recovery from the operation (FIG. 2a). CPT1L-Ribo was delivered ICV three days prior to experimental tests (FIG. 2a). […] Thus, we next measured CPT1 activity in ARC and in whole hypothalamus. […]

| Compound | suppression of hepatic Glc-6-Pase mRNA expression (Glc-6-Pase mRNA; HF55 group, ICV OA vs ICV vehicle) [%] | hepatic Glc-6-Pase mRNA expression (Glc-6-Pase mRNA; HF140 group) | decrease in hypothalamic NPY mRNA compared with ICV vehicle (rats) [%] | Oleyl-CoA levels in ARC (CPT1L) | stearoyl-CoA levels in ARC (CPT1L) | Other LC-CoAs (CPT1L; data not shown) |
| --- | --- | --- | --- | --- | --- | --- |
| CCCCCCCC/C=C\CCCCCCCC(=O)O [OA, oleic acid] | ~73 | no changes detected | ~50 |  |  |  |
| CCCCCCCCCCCCCCNC(=O)N[C@H](CC(=O)[O-])C[N+](C)(C)C [ST1326, (R)-N-(tetradecylcarbamoyl)-aminocarnitine] |  |  |  | marked increase | marked increase | significantly increased |
